Measured values: patent US7781591B2, “Substituted 3-cyanopyridines as protein kinase inhibitors” (Wyeth LLC, priority 2006, dated 2010)

Molecular target: T1, human PKCθ full length enzyme (Homo sapiens, UniProt Q04759)
T1 construct: human PKCθ full length enzyme (Panvera Cat# P2996); purchased Panvera P2996
Assay: PKCθ IMAP assay (fluorescence polarization)
Assay type: biochemical
Conditions: not given

T1 sequence (Q04759 whole entry): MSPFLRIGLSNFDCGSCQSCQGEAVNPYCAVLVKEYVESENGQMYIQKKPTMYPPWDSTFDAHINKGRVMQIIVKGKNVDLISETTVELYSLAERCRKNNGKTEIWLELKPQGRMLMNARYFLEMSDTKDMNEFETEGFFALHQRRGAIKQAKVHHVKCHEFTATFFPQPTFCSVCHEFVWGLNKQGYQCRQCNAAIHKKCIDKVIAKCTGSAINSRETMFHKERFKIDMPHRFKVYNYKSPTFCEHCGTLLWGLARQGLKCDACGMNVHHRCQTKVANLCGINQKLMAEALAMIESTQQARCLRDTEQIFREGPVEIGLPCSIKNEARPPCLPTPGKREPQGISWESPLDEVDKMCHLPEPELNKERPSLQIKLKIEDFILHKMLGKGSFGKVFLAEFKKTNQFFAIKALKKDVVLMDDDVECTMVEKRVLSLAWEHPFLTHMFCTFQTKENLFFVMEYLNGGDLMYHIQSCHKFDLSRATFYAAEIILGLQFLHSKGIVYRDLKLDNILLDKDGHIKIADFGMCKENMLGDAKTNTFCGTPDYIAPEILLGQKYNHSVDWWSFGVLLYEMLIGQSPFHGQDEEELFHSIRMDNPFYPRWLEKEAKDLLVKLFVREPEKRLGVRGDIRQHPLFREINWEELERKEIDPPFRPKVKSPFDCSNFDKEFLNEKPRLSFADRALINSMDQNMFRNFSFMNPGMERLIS

In the case of `Cc1c(Nc2c(C#N)cncc2-c2cc3cc(CN4CC[N+](C)([O-])CC4)ccc3o2)ccc2[nH]ccc12` [Compound 554, 4-[(4-methyl-1H-indol-5-yl)amino]-5-{5-[(4-methyl-4-oxidopiperazin-1-yl)methyl]-1-benzofuran-2-yl}nicotinonitrile], the IC50 is reported as 6 nM.

Same assay, conditions: human PKCθ full length enzyme, IMAP; average value; read-out: IC50 PKCθ IMAP

In order of falling IC50:
1. Cc1c(Nc2c(C#N)cncc2-c2ccc(NC(=O)C(C)C)cc2)ccc2[nH]ccc12 [Compound 579, N-(4-{5-cyano-4-[(4-methyl-1H-indol-5-yl)amino]pyridin-3-yl}phenyl)-2-methylpropanamide]  4730 nM
2. Cc1c(Nc2c(C#N)cncc2-c2cc3cc(CN4CCN(C(=O)OC(C)(C)C)CC4)ccc3o2)cc(Cl)c2[nH]ccc12 [Compound 548, tert-butyl 4-[(2-{4-[(7-chloro-4-methyl-1H-indol-5-yl)amino]-5-cyanopyridin-3-yl}-1-benzofuran-5-yl)methyl]piperazine-1-carboxylate]  406 nM
3. COc1ccc(-c2cncc(C#N)c2Nc2ccc3c(ccn3C)c2C)cc1OC [Compound 555, 5-(3,4-dimethoxyphenyl)-4-[(1,4-dimethyl-1H-indol-5-yl)amino]nicotinonitrile]  226 nM
4. Cc1c(Nc2c(C#N)cncc2-c2ccccc2CN(C)C)ccc2[nH]ccc12 [Compound 550, 5-{2-[(dimethylamino)methyl]phenyl}-4-[(4-methyl-1H-indol-5-yl)amino]nicotinonitrile]  205 nM
5. Cc1c(Nc2c(C#N)cncc2-c2cccc(C(=O)O)c2)ccc2[nH]ccc12 [Compound 556, 3-{5-cyano-4-[(4-methyl-1H-indol-5-yl)amino]pyridin-3-yl}benzoic acid]  110 nM
6. Cc1c(Nc2c(C#N)cncc2-c2cncn2C)ccc2[nH]ccc12 [Compound 564, 5-(1-methyl-1H-imidazol-5-yl)-4-[(4-methyl-1H-indol-5-yl)amino]nicotinonitrile]  98 nM
7. CC(=O)Nc1cccc(-c2cncc(C#N)c2Nc2ccc3[nH]ccc3c2C)c1 [Compound 578, N-(3-{5-cyano-4-[(4-methyl-1H-indol-5-yl)amino]pyridin-3-yl}phenyl)acetamide]  97 nM
8. Cc1c(Nc2c(C#N)cncc2-c2ccc3ccccc3c2)ccc2[nH]ccc12 [Compound 582, 4-[(4-methyl-1H-indol-5-yl)amino]-5-(2-naphthyl)nicotinonitrile]  92 nM
9. Cc1c(Nc2c(C#N)cncc2-c2csc3ccccc23)ccc2[nH]ccc12 [Compound 585, 5-(1-benzothiophen-3-yl)-4-[(4-methyl-1H-indol-5-yl)amino]nicotinonitrile]  88 nM
10. COc1ccc(CN2CCN(C)CC2)cc1-c1cncc(C#N)c1Nc1ccc2[nH]ccc2c1C [Compound 552, 5-{2-methoxy-5-[(4-methylpiperazin-1-yl)methyl]phenyl}-4-[(4-methyl-1H-indol-5-yl)amino]nicotinonitrile]  84 nM
11. COc1ccccc1-c1cncc(C#N)c1Nc1ccc2[nH]ccc2c1C [Compound 557, 5-(2-methoxyphenyl)-4-[(4-methyl-1H-indol-5-yl)amino]nicotinonitrile]  82 nM
12. CC(=O)Nc1ccc(-c2cncc(C#N)c2Nc2ccc3[nH]ccc3c2C)cc1 [Compound 576, N-(4-{5-cyano-4-[(4-methyl-1H-indol-5-yl)amino]pyridin-3-yl}phenyl)acetamide]  73 nM
13. Cc1c(Nc2c(C#N)cncc2-c2ccnn2C)ccc2[nH]ccc12 [Compound 583, 4-[(4-methyl-1H-indol-5-yl)amino]-5-(1-methyl-1H-pyrazol-5-yl)nicotinonitrile]  61 nM
14. Cc1c(Nc2c(C#N)cncc2-c2ccc(NC(=O)N3CCOCC3)cc2)ccc2[nH]ccc12 [Compound 569, N-(4-{5-cyano-4-[(4-methyl-1H-indol-5-yl)amino]pyridin-3-yl}phenyl)morpholine-4-carboxamide]  59 nM
15. Cc1c(Nc2c(C#N)cncc2-c2ccccc2N)ccc2[nH]ccc12 [Compound 573, 5-(2-aminophenyl)-4-[(4-methyl-1H-indol-5-yl)amino]nicotinonitrile]  57 nM
16. Cc1c(Nc2c(C#N)cncc2-c2ccc(NC(=O)N(C)C)cc2)ccc2[nH]ccc12 [Compound 568, 3-(4-{5-cyano-4-[(4-methyl-1H-indol-5-yl)amino]pyridin-3-yl}phenyl)-1,1-dimethylurea]  56 nM
17. Cc1c(Nc2c(C#N)cncc2-c2cccc(N)c2)ccc2[nH]ccc12 [Compound 572, 5-(3-aminophenyl)-4-[(4-methyl-1H-indol-5-yl)amino]nicotinonitrile]  50 nM
18. Cc1c(Nc2c(C#N)cncc2-c2cn[nH]c2)ccc2[nH]ccc12 [Compound 584, 4-[(4-methyl-1H-indol-5-yl)amino]-5-(1H-pyrazol-4-yl)nicotinonitrile]  43 nM
19. COc1cccc(-c2cncc(C#N)c2Nc2ccc3[nH]ccc3c2C)c1 [Compound 558, 5-(3-methoxyphenyl)-4-[(4-methyl-1H-indol-5-yl)amino]nicotinonitrile]  36 nM
20. Cc1c(Nc2c(C#N)cncc2-c2cccc(N(C)C)c2)ccc2[nH]ccc12 [Compound 575, 5-[3-(dimethylamino)phenyl]-4-[(4-methyl-1H-indol-5-yl)amino]nicotinonitrile]  36 nM
21. CC(=O)Nc1ccccc1-c1cncc(C#N)c1Nc1ccc2[nH]ccc2c1C [Compound 577, N-(2-{5-cyano-4-[(4-methyl-1H-indol-5-yl)amino]pyridin-3-yl}phenyl)acetamide]  36 nM
22. Cc1c(Nc2c(C#N)cncc2-c2ccc3[nH]ccc3c2)ccc2[nH]ccc12 [Compound 587, 5-(1H-indol-5-yl)-4-[(4-methyl-1H-indol-5-yl)amino]nicotinonitrile]  36 nM
23. COc1ccc(C=O)cc1-c1cncc(C#N)c1Nc1ccc2[nH]ccc2c1C [Compound 551, 5-(5-formyl-2-methoxyphenyl)-4-[(4-methyl-1H-indol-5-yl)amino]nicotinonitrile]  28 nM
24. Cc1c(Nc2c(C#N)cncc2-c2ccccc2)ccc2[nH]ccc12 [Compound 560, 4-[(4-methyl-1H-indol-5-yl)amino]-5-phenylnicotinonitrile]  27 nM
25. Cc1c(Nc2c(C#N)cncc2-c2ccc(NC(=O)NC3CC3)cc2)ccc2[nH]ccc12 [Compound 566, 1-(4-{5-cyano-4-[(4-methyl-1H-indol-5-yl)amino]pyridin-3-yl}phenyl)-3-cyclopropylurea]  23 nM
26. Cc1c(Nc2c(C#N)cncc2-c2cccc3ccccc23)ccc2[nH]ccc12 [Compound 581, 4-[(4-methyl-1H-indol-5-yl)amino]-5-(1-naphthyl)nicotinonitrile]  23 nM
27. Cc1c(Nc2c(C#N)cncc2-c2ccoc2)ccc2[nH]ccc12 [Compound 563, 5-(3-furyl)-4-[(4-methyl-1H-indol-5-yl)amino]nicotinonitrile]  22 nM
28. Cc1c(Nc2c(C#N)cncc2-c2ccccn2)ccc2[nH]ccc12 [Compound 565, 4′-[(4-methyl-1H-indol-5-yl)amino]-2,3′-bipyridine-5′-carbonitrile]  22 nM
29. Cc1c(Nc2c(C#N)cncc2-c2cccs2)ccc2[nH]ccc12 [Compound 561, 4-[(4-methyl-1H-indol-5-yl)amino]-5-(2-thienyl)nicotinonitrile]  21 nM
30. CNC(=O)Nc1ccc(-c2cncc(C#N)c2Nc2ccc3[nH]ccc3c2C)cc1 [Compound 567, 1-(4-{5-cyano-4-[(4-methyl-1H-indol-5-yl)amino]pyridin-3-yl}phenyl)-3-methylurea]  21 nM
31. Cc1c(Nc2c(C#N)cncc2-c2ccc([N+](=O)[O-])cc2)ccc2[nH]ccc12 [Compound 570, 4-[(4-methyl-1H-indol-5-yl)amino]-5-(4-nitrophenyl)nicotinonitrile]  16 nM
32. Cc1c(Nc2c(C#N)cncc2-c2ccc(N)cc2)ccc2[nH]ccc12 [Compound 571, 5-(4-aminophenyl)-4-[(4-methyl-1H-indol-5-yl)amino]nicotinonitrile]  16 nM
33. CNC(=O)c1ccc(-c2cncc(C#N)c2Nc2ccc3[nH]ccc3c2C)cc1 [Compound 580, 4-{5-cyano-4-[(4-methyl-1H-indol-5-yl)amino]pyridin-3-yl}-N-methylbenzamide]  16 nM
34. Cc1c(Nc2c(C#N)cncc2-c2ccc(N(C)C)cc2)ccc2[nH]ccc12 [Compound 574, 5-[4-(dimethylamino)phenyl]-4-[(4-methyl-1H-indol-5-yl)amino]nicotinonitrile]  15 nM
35. Cc1c(Nc2c(C#N)cncc2-c2ccsc2)ccc2[nH]ccc12 [Compound 562, 4-[(4-methyl-1H-indol-5-yl)amino]-5-(3-thienyl)nicotinonitrile]  12 nM
36. COc1ccc(-c2cncc(C#N)c2Nc2ccc3[nH]c(C)cc3c2C)cc1OC [Compound 549, 5-(3,4-dimethoxyphenyl)-4-[(2,4-dimethyl-1H-indol-5-yl)amino]nicotinonitrile]  10 nM
37. Cc1c(Nc2c(C#N)cncc2-c2cc3ccccc3n2C)ccc2[nH]ccc12 [Compound 586, 5-(1-methyl-1H-indol-2-yl)-4-[(4-methyl-1H-indol-5-yl)amino]nicotinonitrile]  8.7 nM
38. COc1ccc(-c2cncc(C#N)c2Nc2ccc3[nH]ccc3c2C)cc1 [Compound 559, 5-(4-methoxyphenyl)-4-[(4-methyl-1H-indol-5-yl)amino]nicotinonitrile]  6 nM
39. COc1ccc(-c2cncc(C#N)c2Nc2ccc3[nH]ccc3c2F)cc1OC [Compound 546, 5-(3,4-dimethoxyphenyl)-4-[(4-fluoro-1H-indol-5-yl)amino]nicotinonitrile]  5 nM
40. Cc1c(Nc2c(C#N)cncc2-c2cc3cc(CN4CCNCC4)ccc3o2)cc(Cl)c2[nH]ccc12 [Compound 547, 4-[(7-chloro-4-methyl-1H-indol-5-yl)amino]-5-[5-(piperazin-1-ylmethyl)-1-benzofuran-2-yl]nicotinonitrile]  4 nM
41. CCN1CCN(Cc2ccc3oc(-c4cncc(C#N)c4Nc4ccc5[nH]ccc5c4C)cc3c2)CC1 [Compound 553, 5-{5-[(4-ethylpiperazin-1-yl)methyl]-1-benzofuran-2-yl}-4-[(4-methyl-1H-indol-5-yl)amino]nicotinonitrile]  0.48 nM
